What is called IC50 is the concentration needed to halve the response being measured.

Results on 15 compounds are retold here after US20240294531A1, “COVALENT HETEROCYCLES AND USES THEREOF” (Kumquat Biosciences Inc., priority 2022, published 2024).

What all share (type): binding
Test [1] addresses T1, BTK wildtype protein (Homo sapiens (Human), UniProt Q06187). Briefly: Kinact/KI determination for BTK protein inhibitors (Kobs). On the procedure:
Test compounds were prepared as 10 mM stock solutions in DMSO (Fisher cat #BP231-100). Human recombinant BTK wildtype protein 393-659 or BTK C481S protein 393-659 was produced in house or purchased from Saromics Biostructures AB (Lund, Sweden). BTK protein was diluted to 1 μM in buffer (20 mM Hepes, pH 7.5, 150 mM NaCl, 1 mM MgCl2, 1 mM DTT). For testing BTK modification, compounds were diluted to 50× final test concentration in DMSO in 96-well storage plates. 1 μL of the diluted 50× compounds were added to appropriate wells in the PCR plate (Fisher cat #AB-0800). Increasing concentrations of compounds were added to separate wells, resulting in final assay compound concentrations of 3 μM, 10 μM, 30 μM and 100 μM. 49 μL of the stock protein solution was added to each well of the 96-well PCR plate. Reactions were mixed carefully. The plate was sealed well with aluminum plate seal and stored in a drawer at room temperature. After different incubation times, the reactions were quenched by adding 5 μL of 2% formic acid (Fisher cat #A117-50) in MilliQ H2O to each well followed by mixing with a pipette. The plate was then resealed with aluminum seal and stored until mass spectrometry analysis.
The extent of covalent modification of BTK proteins was determined by liquid chromatography electrospray mass spectrometry analysis of the intact proteins using a Thermo Q-Exactive Plus mass spectrometer. 20 μL of sample was injected onto a bioZen 3.6 μm Intact C4 column (Phenomenex cat #00B-4767-AN) placed in a column oven set to 40° C. and separated using a LC gradient from 20% to 60% solvent B. Solvent A was 0.1% formic acid and solvent B was 0.1% formic acid in acetonitrile. HESI source settings were set to 40, 5 and 1 for the sheath, auxiliary and sweep gas flow, respectively. The spray voltage was 4 kV, and the capillary temperature was 320° C. S-lens RF level was 50 and auxiliary gas heater temperature was set to 200° C. The mass spectrometry was acquired using a scan range from 650 to 1750 m/z using positive polarity at a mass resolution of 70,000, AGC target of 1e6 ions and maximum injection time of 250 ms. The recorded protein mass spectrum was deconvoluted from the raw data file using Protein Deconvolution v4.0 (Thermo). The protein mass, adduct masses and their corresponding peak intensities were exported to Excel (Microsoft). The peak intensities for the unmodified and modified protein were used to calculate the percent covalent modification of the BTK protein based on the following equation: % BTK protein modification=((BTK−compound)/(BTK)+(BTK−Compound))*100.
The Kinact/KI is a rate constant describing the efficiency of covalent bond formation resulting from the potency (KI) of the first reversible binding event and the maximum potential rate (Kinact) of inactivation. The percent […] protein modification was plotted as a function of time using Prism version 9.4.1 (GraphPad), and the observed rate of modification (Kobs), a first-order rate constant with units of inverse time, was estimated using nonlinear regression at each compound concentration. […] If Kobs is increasing with compound concentration, KI is higher than 3 μM. Kinact/KI can be estimated by plotting Kobs values against each compound concentration used in separate reactions. The Kobs values are fitted to determine Kinact and KI using the following equation, Kobs=(Kinact×[compound conc])/(KI+[compound conc]).
Target sequence in this assay (Q06187 393-659): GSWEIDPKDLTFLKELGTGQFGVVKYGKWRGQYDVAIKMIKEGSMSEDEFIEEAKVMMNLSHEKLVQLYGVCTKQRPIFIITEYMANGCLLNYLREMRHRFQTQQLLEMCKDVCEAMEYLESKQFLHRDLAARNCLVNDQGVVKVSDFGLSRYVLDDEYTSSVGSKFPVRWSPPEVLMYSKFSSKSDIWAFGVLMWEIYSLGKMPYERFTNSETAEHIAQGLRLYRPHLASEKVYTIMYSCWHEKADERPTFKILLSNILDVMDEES

Test [2] concerns the target T1, BTK wildtype protein. The test can be described thus: BTK wildtype HTRF displacement assay. As to conditions: 1-hour incubation; read-out: BTK (wt) IC50. In a few lines:
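Full-length N-terminal GST-tagged BTK incubated 1 h at room temperature with compound (6 doses, four-fold dilutions from 5 μM top) plus kinase tracer 239 and anti-GST-Tb antibody. Tracer displacement read as TR-FRET 665/620 ratio, background-subtracted using no-protein control. IC50 from four-parameter fit constrained 0–100% inhibition.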
Target sequence in this assay (Q06187 2-659): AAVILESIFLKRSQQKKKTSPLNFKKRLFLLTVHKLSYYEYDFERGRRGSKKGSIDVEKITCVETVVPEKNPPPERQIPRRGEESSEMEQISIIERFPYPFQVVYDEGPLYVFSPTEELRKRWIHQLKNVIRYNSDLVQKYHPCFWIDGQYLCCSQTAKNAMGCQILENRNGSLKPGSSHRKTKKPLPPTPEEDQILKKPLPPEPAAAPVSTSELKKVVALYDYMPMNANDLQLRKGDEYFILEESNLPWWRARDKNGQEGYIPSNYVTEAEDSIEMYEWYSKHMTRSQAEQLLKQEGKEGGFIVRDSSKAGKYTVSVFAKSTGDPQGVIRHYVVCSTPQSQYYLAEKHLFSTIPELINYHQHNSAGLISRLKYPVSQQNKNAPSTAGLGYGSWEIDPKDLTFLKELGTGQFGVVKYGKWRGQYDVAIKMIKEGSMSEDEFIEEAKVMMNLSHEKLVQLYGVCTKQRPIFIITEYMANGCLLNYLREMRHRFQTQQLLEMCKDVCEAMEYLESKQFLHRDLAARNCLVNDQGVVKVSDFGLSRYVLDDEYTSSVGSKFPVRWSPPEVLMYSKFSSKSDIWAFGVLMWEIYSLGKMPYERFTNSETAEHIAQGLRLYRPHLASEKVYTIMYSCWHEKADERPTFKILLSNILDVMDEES
(In general: TR-FRET usually uses a lanthanide donor and a delayed reading to cut background.)

Another test concerns the target BTK C481S protein (Homo sapiens (Human), UniProt Q06187, C481S). The test can be described thus: BTK C481S HTRF displacement assay. To be noted: 1-hour incubation. The procedure, abridged: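 N-terminal GST-tagged BTK C481S (2-659) incubated 1 hour at room temperature with compound (6 doses, four-fold from 5 μM), 50 nM kinase tracer 239 and anti-GST-Tb antibody. TR-FRET 665/620 ratio, background-subtracted; IC50 from constrained four-parameter fit. KI=IC50/(1+[Tracer]/Kd), tracer Kd 54 nM.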

BTK C481S protein, sequence (Q06187 2-659 C481S): as the sequence (Q06187 2-659) above, with C480S counted along it

In the case of `CN(C(=O)n1cncn1)C1CCCC(C2CCNc3c(C(N)=O)c(-c4ccc(Oc5ccccc5)cc4)nn32)C1` (stereo not drawn) [Compound 134, 7-(3-(N-methyl-1H-1,2,4-triazole-1-carboxamido)cyclohexyl)-2-(4-phenoxyphenyl)-4,5,6,7-tetrahydropyrazolo[1,5-a]pyrimidine-3-carboxamide], the “BTK (wt) Kobs” value on BTK wildtype protein [1] is reported as 132, 134, 136, 137, 138, 140, 150, 152, 153, 154, 155, M^−1 · s^−1. Further, the half-inhibitory concentration (IC50) on BTK wildtype protein [2] and at BTK C481S protein was at most 1000 nM each time.

For `NC(=O)c1c(-c2ccc(Oc3ccccc3)cc2)nn2c1NCCC2C1CCN(C(=O)n2cncn2)CC1` (stereo not drawn) [Compound 136, 7-(1-(1H-1,2,4-triazole-1-carbonyl)piperidin-4-yl)-2-(4-phenoxyphenyl)-4,5,6,7-tetrahydropyrazolo[1,5-a] pyrimidine-3-carboxamide], the “BTK (wt) Kobs” value on BTK wildtype protein [1] is 132, 134, 136, 137, 138, 140, 150, 152, 153, 154, 155, M^−1 · s^−1. For the same compound, the half-maximal inhibitory concentration (IC50) at BTK wildtype protein [2] and on BTK C481S protein was at most 1000 nM in each case.

For the compound `NC(=O)c1c(-c2ccc(Oc3ccccc3)cc2)nn2c1NCCC2C1CCN1C(=O)n1cncn1` (stereo not drawn) [Compound 137, 7-(1-(1H-1,2,4-triazole-1-carbonyl)azetidin-2-yl)-2-(4-phenoxyphenyl)-4,5,6,7-tetrahydropyrazolo[1,5-a] pyrimidine-3-carboxamide], on BTK wildtype protein [1], the “BTK (wt) Kobs” value was 132, 134, 136, 137, 138, 140, 150, 152, 153, 154, 155, M^−1 · s^−1. The half-maximal inhibitory concentration (IC50) on BTK wildtype protein [2] is over 1000 nM; at BTK C481S protein it was at most 1000 nM.

Consider `NC(=O)c1c(-c2ccc(Oc3ccccc3)cc2)nn2c1NCCC2[C@H]1CCCN1C(=O)n1cncn1` (stereo partly drawn) [Compound 140, 7-((R)-1-(1H-1,2,4-triazole-1-carbonyl)pyrrolidin-2-yl)-2-(4-phenoxyphenyl)-4,5,6,7-tetrahydropyrazolo[1,5-a] pyrimidine-3-carboxamide], for which the “BTK (wt) Kobs” value on BTK wildtype protein [1] is 132, 134, 136, 137, 138, 140, 150, 152, 153, 154, 155, M^−1 · s^−1. For the same compound, the figures for the half-inhibitory concentration (IC50) on BTK wildtype protein [2] and at BTK C481S protein were over 1000 nM and at most 1000 nM, respectively.

On to `COc1ccc(F)cc1C(=O)NCc1ccc(-c2nn(C3CCC(N(C)C(=O)n4cncn4)C3)c(N)c2C(N)=O)cc1` (stereo not drawn) [Compound 150, N-(3-(5-amino-4-carbamoyl-3-(4-((5-fluoro-2-methoxybenzamido)methyl)phenyl)-1H-pyrazol-1-yl)cyclopentyl)-N-methyl-1H-1,2,4-triazole-1-carboxamide], for which the “BTK (wt) Kobs” value at BTK wildtype protein [1] is reported as 132, 134, 136, 137, 138, 140, 150, 152, 153, 154, 155, M^−1 · s^−1. At BTK C481S protein, this compound yielded an IC50 of at most 1000 nM.

In the case of `COc1ccc(F)cc1C(=O)NCc1ccc(-c2nn(C3CCCC4(CCN4C(=O)n4cncn4)C3)c3ncnc(N)c23)cc1` (stereo not drawn) [Compound 152, N-(4-(1-(1-(1H-1,2,4-triazole-1-carbonyl)-1-azaspiro[3.5]nonan-6-yl)-4-amino-1H-pyrazolo[3,4-d]pyrimidin-3-yl)benzyl)-5-fluoro-2-methoxybenzamide], the “BTK (wt) Kobs” value at BTK wildtype protein [1] was 132, 134, 136, 137, 138, 140, 150, 152, 153, 154, 155, M^−1 · s^−1. At BTK C481S protein, the half-inhibitory concentration (IC50) is at most 1000 nM.

For the compound `COc1ccc(F)cc1C(=O)NCc1ccc(-c2nn(C[C@@H]3CCC[C@H]3CN(C)C(=O)n3cncn3)c3ncnc(N)c23)cc1` [Compound 153, N-(((1R,2R)-2-((4-amino-3-(4-((5-fluoro-2-methoxybenzamido)methyl)phenyl)-1H-pyrazolo[3,4-d]pyrimidin-1-yl)methyl)cyclopentyl)methyl)-N-methyl-1H-1,2,4-triazole-1-carboxamide], on BTK wildtype protein [1], the “BTK (wt) Kobs” value was 132, 134, 136, 137, 138, 140, 150, 152, 153, 154, 155, M^−1 · s^−1. For the same compound, the 50% inhibitory concentration (IC50) on BTK wildtype protein [2] and at BTK C481S protein was at most 1000 nM throughout.

For `COc1ccc(F)cc1C(=O)NCc1ccc(-c2nn(C[C@H]3CCCCN3C(=O)n3cncn3)c(N)c2C(N)=O)cc1` [Compound 154, (R)-1-((1-(1H-1,2,4-triazole-1-carbonyl)piperidin-2-yl)methyl)-5-amino-3-(4-((5-fluoro-2-methoxybenzamido)methyl)phenyl)-1H-pyrazole-4-carboxamide], the “BTK (wt) Kobs” value on BTK wildtype protein [1] is listed as 132, 134, 136, 137, 138, 140, 150, 152, 153, 154, 155, M^−1 · s^−1. Further, the concentration for half-maximal inhibition (IC50) on BTK wildtype protein [2] and on BTK C481S protein was at most 1000 nM throughout.

`COc1ccc(F)cc1C(=O)NCc1ccc(-c2nn(C(C)C(C)N(C)C(=O)n3cnnc3)c(N)c2C(N)=O)cc1` (stereo not drawn) [Compound 155, N-(3-(5-amino-4-carbamoyl-3-(4-((5-fluoro-2-methoxybenzamido)methyl)phenyl)-1H-pyrazol-1-yl)butan-2-yl)-N-methyl-4H-1,2,4-triazole-4-carboxamide]: at BTK wildtype protein [1], the “BTK (wt) Kobs” value is 132, 134, 136, 137, 138, 140, 150, 152, 153, 154, 155, M^−1 · s^−1. The values for the half-maximal inhibitory concentration (IC50) at BTK wildtype protein [2] and at BTK C481S protein were over 1000 nM and at most 1000 nM, respectively.

On to `COc1ccc(F)cc1C(=O)NCc1ccc(-c2nn(C(C)C(C)CN(C)C(=O)n3cncn3)c3ncnc(N)c23)cc1` (stereo not drawn) [Compound 248, N-(3-(4-amino-3-(4-((5-fluoro-2-methoxybenzamido)methyl)phenyl)-1H-pyrazolo[3,4-d]pyrimidin-1-yl)-2-methylbutyl)-N-methyl-1H-1,2,4-triazole-1-carboxamide], for which the “BTK (wt) Kobs” value on BTK wildtype protein [1] is recorded as 248, 249, 250, 253, 254, 256, 259, 260, 261, 264, 265, M^−1 · s^−1. On BTK wildtype protein [2], the 50% inhibitory concentration (IC50) was at most 1000 nM.

For the compound `NC(=O)c1c(-c2ccc(Oc3ccccc3)cc2)nn(C2CCCC3C2CCN3C(=O)n2cncn2)c1N` (stereo not drawn) [Compound 253, 1-(1-(1H-1,2,4-triazole-1-carbonyl)octahydro-1H-indol-4-yl)-5-amino-3-(4-phenoxyphenyl)-1H-pyrazole-4-carboxamide], the “BTK (wt) Kobs” value at BTK wildtype protein [1] is on record as 248, 249, 250, 253, 254, 256, 259, 260, 261, 264, 265, M^−1 · s^−1.

For `COc1ccc(F)cc1C(=O)NCc1ccc(-c2nn([C@H]3CC[C@H](N(C)C(=O)n4cncn4)C3)c3ncnc(N)c23)cc1` [Compound 312, N-((1S,3S)-3-(4-amino-3-(4-((5-fluoro-2-methoxybenzamido)methyl)phenyl)-1H-pyrazolo [3,4-d]pyrimidin-1-yl)cyclopentyl)-N-methyl-1H-1,2,4-triazole-1-carboxamide], the half-maximal inhibitory concentration (IC50) at BTK wildtype protein [2] and on BTK C481S protein was at most 1000 nM each time.

On to `COc1ccc(F)cc1C(=O)NCc1ccc(-c2nn(CC3CN(C(C)=O)CCN3C(=O)n3cncn3)c3ncnc(N)c23)cc1` (stereo not drawn) [Compound 313, N-(4-(1-((4-acetyl-1-(1H-1,2,4-triazole-1-carbonyl)piperazin-2-yl)methyl)-4-amino-1H-pyrazolo[3,4-d]pyrimidin-3-yl)benzyl)-5-fluoro-2-methoxybenzamide], for which the IC50 on BTK wildtype protein [2] and on BTK C481S protein was over 1000 nM throughout.

With `COc1ccc(F)cc1C(=O)NCc1ccc(-c2nn(C[C@H](C)N(C)C(=O)n3cncn3)c3ncnc(N)c23)cc1` [Compound 315, (S)-N-(1-(4-amino-3-(4-((5-fluoro-2-methoxybenzamido)methyl)phenyl)-1H-pyrazolo[3,4-d]pyrimidin-1-yl)propan-2-yl)-N-methyl-1H-1,2,4-triazole-1-carboxamide], the IC50 at BTK wildtype protein [2] and on BTK C481S protein was over 1000 nM in each case.

With `COc1ccc(F)cc1C(=O)NCc1ccc(-c2nn(CCN(C(=O)n3cncn3)C3CC3)c3ncnc(N)c23)cc1` [Compound 316, N-(2-(4-amino-3-(4-((5-fluoro-2-methoxybenzamido)methyl)phenyl)-1H-pyrazolo[3,4-d]pyrimidin-1-yl)ethyl)-N-cyclopropyl-1H-1,2,4-triazole-1-carboxamide], the IC50 at BTK wildtype protein [2] and at BTK C481S protein was over 1000 nM each time.
